Experiments:
[1] = test system: rat model of inflammation (mechanical hypersensitivity); format: in vivo
Description: For all doses, the C Trough is higher than efficacious doses in animal model of inflammation. […] FCA1, an oral dose of 1 mg/kg was the minimal effective dose in this model. TGN (trigeminal neuralgia), PLSR (painful lumbosacral radiculopathy).
In this model, inflammation was induced by intraplantar injection of Freud Complete Adjuvant.
Mechanical hypersensitivity was then assessed using weight bearing.

healthy participants = test: Phase 1 cross-over study, ambulatory blood pressure monitoring (ABPM); format: in vivo, human; details: for DBP: Change >10 and absolute value >80 mmHg, observations / SBP: Change >10 and absolute value >130 mmHg, observations: 300-400 mg repeat dose; for BIIB074-Placebo difference in change of 24 h average DBP / BIIB074-Placebo difference in change of 24 h average SBP / LS Mean change in 24 h average DBP from baseline / LS Mean change in 24 h average SBP from baseline: outpatient
Description: This was a Phase 1, randomized, double-blind, placebo-controlled, repeat dose, 2-period cross-over study to investigate the effect of BIIB074 300-400 mg bid on ambulatory blood pressure (ABP) in healthy participants (FIG. 2). The study comprised: screening (to occur a maximum of 30 days before the first baseline assessment); two 36-day treatment periods, each preceded by a baseline visit and separated by a 7-day washout (to minimize possible carry over effects); and a follow-up period of 7-14 days after last dose. Prior to this study, no females had received BIIB074; for this reason, a single dose BIIB074 session at the dose level of 400 mg was also conducted in female participants one week prior to the period 1 baseline visit. Following this session, some participants were predicted to exceed the predefined PK limit (area under the plasma concentration-time curve [AUC] 97 μg·h/mL) when receiving 400 mg bid at steady state. Therefore, in the subsequent phases of the study, all female participants received a lower dose of 300 mg bid (males received 400 mg bid).
Participants were assigned to treatment sequences in accordance with a randomization schedule generated by Discovery Biometrics, prior to the start of the study, using validated software. Study treatment was BIIB074 400 mg bid for males/300 mg bid for females, or placebo, for 36 days. Prior to dosing, volunteers were randomized into one of the following treatment sequences, BIIB074 (period 1):placebo (period 2) or placebo (period 1):BIIB074 (period 2), and more specifically AB and BA if male and CAB and CBA if female, where A=placebo, B=BIIB074 400 mg bid in males and 300 mg bid in females, C=BIIB074 400 mg single dose in females. Randomization numbers were assigned by the site ensuring there was a balance of sequences (AB/BA and CAB/CBA) in each group. Periods 1 and 2 were double-masked to patients and study personnel.
The primary endpoint was change in 24 h average SBP and DBP from baseline to day 36 as determined by ABPM. Secondary outcome measures included: change in 24 h average SBP and DBP from baseline to days 4 and 15; change in average SBP and DBP within a 12 h dosing interval from baseline to days 14 and 35 (inpatient); change in 24 h average ambulatory heart rate from baseline to days 4, 15 and 36; proportion of participants whose 24 h SBP and DBP increased by <5, 5-9, 10-14, 15-19, and >20 mm Hg compared with baseline; PK parameters of BIIB074 following a single oral dose in healthy female participants, and following repeated oral doses given twice daily to healthy male and female participants; PK/pharmacodynamic (PD) analyses to examine the correlation between ABP and plasma levels and/or metrics of the systemic exposure of BIIB074.
ABP was collected over 24 hours on an outpatient basis at baseline and at days 4, 15 and 36, and over 12 hours on an inpatient basis at baseline, and at days 14 and 35. The ABPM device was placed on the non-dominant arm (except in clinical situations that prohibited measuring BP in the non-dominant arm). BP and heart rate were measured every 15 minutes.
Non-inferiority was based on the one-sided 95% confidence interval (CI) for BIIB074-placebo excluding an effect of >5 mmHg in SBP or DBP. It was planned to recruit approximately 60 participants in order to obtain a minimum of 48 evaluable for ABPM during the repeat dose phase, for at least 90% power, assuming a within-subject standard deviation (SDw) of 8.21 mmHg.
ABPM data were analyzed using a repeated measures mixed effects model, whereby fixed effects were treatment, day, treatment*day, period, average baseline*day, period adjusted baseline*day, sex and treatment*sex; random effect was subject; and repeated effect was day. All summary statistics were carried out using SAS 8.02 for UNIX running under the Harmonisation of Analysis and Reporting Program (HARP) environment. […]

rats = test: Tyramine-induced hypertension; format: in vivo, rat; details: data not shown
From the text: The 36 day treatment duration in this study was rationally designed to determine whether tolerance developed for any potential effects of BIIB074 on SBP or DBP, since BP effects resolved by day 28 in the earlier phase 1 trial. The data from this study show a slight trend towards a decrease in the BP difference between BIIB074 and placebo between day 4 and day 35, although differences were minimal at all time points. […] Thus, the body of evidence, encompassing clinical and preclinical studies, supports safety and minimal effects of BIIB074 on BP/cardiovascular parameters.

Cl.NC(=O)[C@@H]1CC[C@H](c2ccc(OCc3ccccc3F)cc2)N1 [Example 1, (5R)-5-(4-{[(2-Fluorophenyl)methyl]oxy}phenyl)-L-prolinamide hydrochloride]
Reversal of mechanical hypersensitivity ([1]; 5 mg/kg oral): fully reversed | Human scaled equivalent total plasma exposure where robust efficacy was observed ([1]; rat, in vivo): 786 ng/mL | DBP: Change >10 and absolute value >80 mmHg, observations (healthy participants; Day 4, outpatient 24 h): 137 (10.6%) n (%) | SBP: Change >10 and absolute value >130 mmHg, observations (healthy participants; Day 4, outpatient 24 h): 116 (9.0%) n (%) | DBP: Change >10 and absolute value >80 mmHg, observations (healthy participants; Day 15, outpatient 24 h): 109 (8.3%) n (%) | SBP: Change >10 and absolute value >130 mmHg, observations (healthy participants; Day 15, outpatient 24 h): 95 (7.2%) n (%) | DBP: Change >10 and absolute value >80 mmHg, observations (healthy participants; Day 36, outpatient 24 h): 86 (6.9%) n (%) | SBP: Change >10 and absolute value >130 mmHg, observations (healthy participants; Day 36, outpatient 24 h): 63 (5.0%) n (%) | Slope of linear relationship DBP vs observed plasma concentration (healthy participants; PK/PD analysis, inpatient ABPM): approximately 0.00077±0.00012 mmHg/(ng/mL) | Slope of linear relationship SBP vs observed plasma concentration (healthy participants; PK/PD analysis, inpatient ABPM): ~0.00056±0.00013 mmHg/(ng/mL) | Average increase of SBP with plasma concentration (healthy participants; PK/PD analysis, over the 24 h interval): < 2 mmHg | Upper bound of one-sided 95% CI for BIIB074-placebo (healthy participants; SBP on day 4, outpatient): ~2.2 mmHg | Inpatient 12 h ABPM, difference to placebo (healthy participants; after 36 days of therapy): no significant differences | Increase in outpatient 24 h SBP or DBP (healthy participants; day 36, distribution of individual changes): no evidence to suggest a significant increase | Observations with DBP increase >10 mmHg and absolute value >80 mmHg (healthy participants; day 36, outpatient): 6.9% | Observations with SBP increase >10 mmHg and absolute value >130 mmHg (healthy participants; day 36, outpatient): 5.0% | Observations with increase from baseline in SBP>30 mmHg (healthy participants; day 36, outpatient 24 h (0%)): 4/1249 | Observations with increase from baseline in DBP>20 mmHg (healthy participants; day 36, outpatient 24 h (3%)): 35/1249 | Increase in change from baseline for SBP, DBP, and heart rate (healthy participants; inpatient ABPM, days 14 and 35): 2.0-2.5 mmHg/bpm | Upper bound of one-sided 95% CI for BIIB074-placebo (healthy participants; majority of SBP and DBP comparisons on days 4, 15, 36): < 2 mmHg | Non-inferiority to placebo, outpatient 24 h SBP and DBP (healthy participants; one-sided 95% CI excluding effect >5 mmHg): Non-inferiority of BIIB074 compared to placebo was demonstrated | BIIB074-Placebo difference in change of 24 h average DBP (healthy participants; Day 4): 0.789 mmHg | BIIB074-Placebo difference in change of 24 h average SBP (healthy participants; Day 4): 1.006 mmHg | LS Mean change in 24 h average DBP from baseline (healthy participants; Day 4, 300-400 mg bid): 1.856 mmHg | LS Mean change in 24 h average SBP from baseline (healthy participants; Day 4, 300-400 mg bid): 2.372 mmHg | BIIB074-Placebo difference in change of 24 h average DBP (healthy participants; Day 15): 0.645 mmHg | BIIB074-Placebo difference in change of 24 h average SBP (healthy participants; Day 15): 0.294 mmHg | LS Mean change in 24 h average DBP from baseline (healthy participants; Day 15, 300-400 mg bid): 0.907 mmHg | LS Mean change in 24 h average SBP from baseline (healthy participants; Day 15, 300-400 mg bid): 0.915 mmHg | BIIB074-Placebo difference in change of 24 h average DBP (healthy participants; Day 36): 0.287 mmHg | BIIB074-Placebo difference in change of 24 h average SBP (healthy participants; Day 36): −0.507 mmHg | LS Mean change in 24 h average DBP from baseline (healthy participants; Day 36, 300-400 mg bid): 0.201 mmHg | LS Mean change in 24 h average SBP from baseline (healthy participants; Day 36, 300-400 mg bid): −0.327 mmHg | Change in SBP and DBP, outpatient and inpatient ABPM (healthy participants; repeat doses for 36 days): lack of clinically relevant change | Effects on tyramine-induced hypertension (rats): no effects
